Reference: patent US8362081B2, “Methods for treating hemorrhagic conditions” (priority 2009, dated 2013)

Assays:
[1] = tested on: liver wound bleeding; assay: Rabbit liver hemorrhage: bleeding time and extent; assay type: in vivo; conditions: 0.5 KU/kg injected via ear vein at wounding, vs physiological saline control
Experimental: Healthy rabbits having a weight of 2-2.5 kg were distributed randomly into four groups consisting of 6 rabbits per group. The rabbits in each group were fed only water for the twelve-hour period prior to operation. Each rabbit was anaesthetized by receiving an injection of sodium pentobarbital (30 mg/kg) in the abdominal cavity. An incision was made in the upper abdominal cavity of each animal and a piece of the liver was removed leaving a wound 2 cm in length, 1 cm in width and 0.5 cm in height.
At the time of wounding, the animals received by injection (2 ml/kg) via an ear vein one of following four compositions suspended in physiological saline: control, 0.5 KU/kg Reptilase, 25 mg/kg Sodium Dencichine, or 1 mg/kg solid dispersion composition of Dencichine prepared according to Example 1. Following the injection, the bleeding time and extent was recorded for each rabbit until the liver wound stopped bleeding.

[2] = tested on: acute gastric bleeding; assay: Gastrorrhagia of rats: acute gastric bleeding time and extent; assay type: in vivo, Sprague-Dawley rat; conditions: rat gastric wound; 0.5 KU/kg via femoral vein 30 min before wounding; vs physiological saline control
Experimental: Healthy Sprague-Dawley rats having a weight of 180-220 g were distributed randomly into four groups consisting of 10 rats per group. The rats in each group were fed only water for the twelve-hour period prior to operation. Each rat was anaesthetized by receiving an injection of sodium pentobarbital (30 mg/kg) in the abdominal cavity. An incision was made in the upper abdominal cavity of each animal and the stomach exposed to air and minced along the greater curvature. The stomach was vacated for each animal and cleaned with sterile cotton swab.
The animals received by injection (1 ml/100 g) via a femoral vein one of following four compositions suspended in physiological saline: control, 0.5 KU/kg Reptilase, 25 mg/kg Sodium Dencichine, or 1 mg/kg solid dispersion composition of Dencichine prepared according to Example 1. Thirty minutes following the injection, one piece of the gastric body from each animal was excised using biopsy forceps to establish acute gastric bleeding. The bleeding time and extent was recorded for each rat until the wound stopped bleeding.

[3] = tested on: tail wound bleeding; assay: Tail bleeding time of mouse; assay type: in vivo, ICR mouse; conditions: mouse tail cut; 0.5 KU/kg via tail vein 30 min before cut; vs physiological saline control
Experimental: Healthy male ICR mice having a weight of 18-22 g were distributed randomly into […] consisting of 10 mice per group. The animals received by injection (0.1 ml/10 g) via the tail vein one of following four compositions suspended in physiological saline: control, 0.5 KU/kg Reptilase, 25 mg/kg Sodium Dencichine, or 1 mg/kg solid dispersion composition of Dencichine prepared according to Example 1. Thirty minutes following injection the tail of each mouse was cut 0.5 cm from the tail tip. The cut tail wound bleeding of each mouse was monitored by scrubbing the tail tip with a filter paper at timed intervals (30 s, 60 s, and every 10 s thereafter) until blood could not be seen on the filter paper.

Reptilase: Haemostatic comparator injected at 0.5 KU/kg
significantly shortened: time and extent of the wound bleeding [1] | time and extent of the wound bleeding [2] | time required to stop the tail wound bleeding [3]
